# Data taken from patent US20110130326A1, “DEFENSINS FOR TREATMENT OF INFECTIVE ENDOCARDITIS” (Novozymes A/S, priority 2009, published 2011).
# Like-named read-outs stand apart in the source and are kept apart here. Marks after values point to notes of the source that are not given here.
# Tests used:
# MRSA ATCC33591 [1] = experiment: MIC by broth microdilution assay according to CLSI; assay type: cell-based, Staphylococcus aureus
# Protocol: The MICs of endocardisin, vancomycin and daptomycin were determined by a broth microdilution assay according to Clinical Laboratory Standards Institute (CLSI). MIC is defined as the lowest drug concentration completely inhibiting organisms growth.
# MRSA ATCC33591 [2] = experiment: Experimental rabbit aortic infective endocarditis model, Example 1 (end of treatment and relapse); assay type: in vivo, Staphylococcus aureus; conditions: for Staphylococcus aureus densities, Kidneys / Staphylococcus aureus densities, Spleen / Staphylococcus aureus densities, Vegetations / Staphylococcus aureus densities, Kidneys (Relapse) / Staphylococcus aureus densities, Spleen (Relapse) / Staphylococcus aureus densities, Vegetations (Relapse): rabbit, iv, 3 days; for Staphylococcus aureus densities, Kidneys / Staphylococcus aureus densities, Spleen / Staphylococcus aureus densities, Vegetations: 24 h after last dose, mean ± SD; for Staphylococcus aureus densities, Kidneys (Relapse) / Staphylococcus aureus densities, Spleen (Relapse) / Staphylococcus aureus densities, Vegetations (Relapse): then drug-free for an extra 3 days
# Protocol: Experimental aortic infective endocarditis model was induced in New Zealand White rabbits with a methicillin-resistant Staphylococcus aureus (MRSA), strain ATCC33591, following trans-carotid-transaortic valve indwelling catheterization.
# After aortic catheterization and 24 hr post-infection, animals were randomized to receive either:
# i) no therapy (control); ii) endocardisin at 40 mg/kg, iv, twice daily; iii) vancomycin at 15 mg/kg, iv, twice daily; or iv) daptomycin at 12 mg/kg, iv, once daily (the latter two dose-strategies to mimic human-like PK).
# Treatments lasted for 3 days. At 24 hours after the last antibiotic dose, half the animals were sacrificed with a lethal dose of sodium pentobarbital to test the treatment efficacies. The remaining animals resided drug-free for an extra 3 days for relapse studies. At sacrifice, vegetations, kidneys and spleen were removed and quantitatively cultured. […] Culture results were expressed as mean log10 CFU per gram of tissue (±SD).
# MRSA ATCC33591 [3] = experiment: Experimental rabbit infective endocarditis model, Example 2 (dose response); assay type: in vivo, Staphylococcus aureus; conditions: for Staphylococcus aureus densities, Kidneys / Staphylococcus aureus densities, Spleen / Staphylococcus aureus densities, Vegetations: rabbit, 3 days, 24 h after last dose
# Protocol: Rabbit IE was induced following transcarotid-transaortic valve indwelling catheterization. At 24 hrs after iv infection with 10^6 cfu MRSA ATCC33591 (ID95 inoculum), animals received either:
# i) no therapy (control); ii) endocardisin at 5, 10 or 20 mg/kg, iv, bid; iii) vancomycin at 15 mg/kg, iv, bid; or iv) daptomycin at 12 mg/kg, iv, once-daily;
# All regimens were for 3 days. At 24 hours after the last antibiotic dose, target tissues were removed and quantitatively cultured.
compound,measurement,setting,value
endocardisin: synthetic defensin; a polypeptide having the amino acid sequence shown in SEQ ID NO: 1 (GFGCNGPWNEDDLRCHNHCKSIKGYKGGYCAKGGFVCKCY),MIC,"MRSA ATCC33591 [1]; study strain MRSA ATCC33591, lowest drug concentration completely inhibiting growth",0.5 micrograms/ml
same,preventing relapse,MRSA ATCC33591 [2]; 3 days drug-free after 3 days treatment,most effective in preventing relapse
same,reduction of MRSA densities in all target tissues as compared with vancomycin therapy,"MRSA ATCC33591 [2]; endocardisin 40 mg/kg iv twice daily, P<0.001",significantly greater efficacy
same,"Staphylococcus aureus densities, Kidneys","MRSA ATCC33591 [2]; 40 mg/kg, twice-daily",1.18 +/− 0.75* log10 CFU/g tissue
same,"Staphylococcus aureus densities, Spleen","MRSA ATCC33591 [2]; 40 mg/kg, twice-daily",1.02 +/− 0.65* log10 CFU/g tissue
same,"Staphylococcus aureus densities, Vegetations","MRSA ATCC33591 [2]; 40 mg/kg, twice-daily",2.41 +/− 1.50* log10 CFU/g tissue
same,"Staphylococcus aureus densities, Kidneys (Relapse)","MRSA ATCC33591 [2]; 40 mg/kg, twice-daily",0.75 +/− 0.79* log10 CFU/g tissue
same,"Staphylococcus aureus densities, Spleen (Relapse)","MRSA ATCC33591 [2]; 40 mg/kg, twice-daily",1.17 +/− 0.70* log10 CFU/g tissue
same,"Staphylococcus aureus densities, Vegetations (Relapse)","MRSA ATCC33591 [2]; 40 mg/kg, twice-daily",1.45 +/− 0.64* log10 CFU/g tissue
same,dose dependence of therapeutic efficacy in all target tissues,"MRSA ATCC33591 [3]; 5, 10 or 20 mg/kg, iv, bid",dose-dependent therapeutic efficacy
same,reduction of MRSA densities in all target tissues vs. vancomycin therapy,MRSA ATCC33591 [3]; endocardisin at 20 mg/kg,significantly greater efficacy
same,"Staphylococcus aureus densities, Kidneys","MRSA ATCC33591 [3]; 5 mg/kg, iv, twice-daily",4.33 +/− 1.27 log10 CFU/g tissue
same,"Staphylococcus aureus densities, Spleen","MRSA ATCC33591 [3]; 5 mg/kg, iv, twice-daily",4.61 +/− 1.11 log10 CFU/g tissue
same,"Staphylococcus aureus densities, Vegetations","MRSA ATCC33591 [3]; 5 mg/kg, iv, twice-daily",6.44 +/− 1.70 log10 CFU/g tissue
same,"Staphylococcus aureus densities, Kidneys","MRSA ATCC33591 [3]; 10 mg/kg, iv, twice-daily",3.19 +/− 1.06 log10 CFU/g tissue
same,"Staphylococcus aureus densities, Spleen","MRSA ATCC33591 [3]; 10 mg/kg, iv, twice-daily",2.62 +/− 0.60 log10 CFU/g tissue
same,"Staphylococcus aureus densities, Vegetations","MRSA ATCC33591 [3]; 10 mg/kg, iv, twice-daily",4.74 +/− 1.84 log10 CFU/g tissue
same,"Staphylococcus aureus densities, Kidneys","MRSA ATCC33591 [3]; 20 mg/kg, iv, twice-daily",0.61 +/− 0.21 log10 CFU/g tissue
same,"Staphylococcus aureus densities, Spleen","MRSA ATCC33591 [3]; 20 mg/kg, iv, twice-daily",0.61 +/− 0.12 log10 CFU/g tissue
same,"Staphylococcus aureus densities, Vegetations","MRSA ATCC33591 [3]; 20 mg/kg, iv, twice-daily",1.57 +/− 0.75 log10 CFU/g tissue
CCCCCCCCCC(=O)N[C@@H](Cc1c[nH]c2ccccc12)C(=O)N[C@H](CC(N)=O)C(=O)N[C@@H](CC(=O)O)C(=O)N[C@@H]1C(=O)NCC(=O)N[C@@H](CCCN)C(=O)N[C@@H](CC(=O)O)C(=O)N[C@H](C)C(=O)N[C@@H](CC(=O)O)C(=O)NCC(=O)N[C@H](CO)C(=O)N[C@@H]([C@H](C)CC(=O)O)C(=O)N[C@@H](CC(=O)c2ccccc2N)C(=O)O[C@@H]1C [daptomycin],MIC,"MRSA ATCC33591 [1]; Staphylococcus aureus, study strain MRSA ATCC33591, lowest drug concentration completely inhibiting growth, read-out: MIC",0.125 µg/mL
same,"Staphylococcus aureus densities, Kidneys","MRSA ATCC33591 [2]; 12 mg/kg, once-daily",0.76 +/− 0.52* log10 CFU/g tissue
same,"Staphylococcus aureus densities, Spleen","MRSA ATCC33591 [2]; 12 mg/kg, once-daily",0.91 +/− 0.53* log10 CFU/g tissue
same,"Staphylococcus aureus densities, Vegetations","MRSA ATCC33591 [2]; 12 mg/kg, once-daily",1.90 +/− 0.82* log10 CFU/g tissue
same,"Staphylococcus aureus densities, Kidneys (Relapse)","MRSA ATCC33591 [2]; 12 mg/kg, once-daily",1.68 +/− 2.24** log10 CFU/g tissue
same,"Staphylococcus aureus densities, Spleen (Relapse)","MRSA ATCC33591 [2]; 12 mg/kg, once-daily",1.30 +/− 1.48** log10 CFU/g tissue
same,"Staphylococcus aureus densities, Vegetations (Relapse)","MRSA ATCC33591 [2]; 12 mg/kg, once-daily",2.46 +/− 2.36** log10 CFU/g tissue
same,"Staphylococcus aureus densities, Kidneys","MRSA ATCC33591 [3]; 12 mg/kg, iv, once-daily",0.76 +/− 0.53 log10 CFU/g tissue
same,"Staphylococcus aureus densities, Spleen","MRSA ATCC33591 [3]; 12 mg/kg, iv, once-daily",0.91 +/− 0.53 log10 CFU/g tissue
same,"Staphylococcus aureus densities, Vegetations","MRSA ATCC33591 [3]; 12 mg/kg, iv, once-daily",1.90 +/− 0.82 log10 CFU/g tissue
CN[C@H](CC(C)C)C(=O)N[C@H]1C(=O)N[C@@H](CC(N)=O)C(=O)N[C@H]2C(=O)N[C@H]3C(=O)N[C@H](C(=O)N[C@H](C(=O)O)c4cc(O)cc(O)c4-c4cc3ccc4O)[C@H](O)c3ccc(c(Cl)c3)Oc3cc2cc(c3O[C@@H]2O[C@H](CO)[C@@H](O)[C@H](O)[C@H]2O[C@H]2C[C@](C)(N)[C@H](O)[C@H](C)O2)Oc2ccc(cc2Cl)[C@H]1O [vancomycin],MIC,MRSA ATCC33591 [1]; Staphylococcus aureus,2 µg/mL
same,"Staphylococcus aureus densities, Kidneys","MRSA ATCC33591 [2]; 15 mg/kg, twice-daily",3.07 +/− 0.53 log10 CFU/g tissue
same,"Staphylococcus aureus densities, Spleen","MRSA ATCC33591 [2]; 15 mg/kg, twice-daily",3.02 +/− 0.51 log10 CFU/g tissue
same,"Staphylococcus aureus densities, Vegetations","MRSA ATCC33591 [2]; 15 mg/kg, twice-daily",5.60 +/− 1.47 log10 CFU/g tissue
same,"Staphylococcus aureus densities, Kidneys (Relapse)","MRSA ATCC33591 [2]; 15 mg/kg, twice-daily",4.69 +/− 1.63 log10 CFU/g tissue
same,"Staphylococcus aureus densities, Spleen (Relapse)","MRSA ATCC33591 [2]; 15 mg/kg, twice-daily",3.98 +/− 1.27 log10 CFU/g tissue
same,"Staphylococcus aureus densities, Vegetations (Relapse)","MRSA ATCC33591 [2]; 15 mg/kg, twice-daily",6.36 +/− 1.57 log10 CFU/g tissue
same,"Staphylococcus aureus densities, Kidneys","MRSA ATCC33591 [3]; 15 mg/kg, iv, twice-daily",3.07 +/− 0.53 log10 CFU/g tissue
same,"Staphylococcus aureus densities, Spleen","MRSA ATCC33591 [3]; 15 mg/kg, iv, twice-daily",3.02 +/− 0.51 log10 CFU/g tissue
same,"Staphylococcus aureus densities, Vegetations","MRSA ATCC33591 [3]; 15 mg/kg, iv, twice-daily",5.60 +/− 1.47 log10 CFU/g tissue
